Data reported in patent publication US8937091B2 (Japan Science and Technology Agency, priority 2009, dated 2015).

Experiments:
[1] = tested on: IICR (IP3 induced calcium release) in CHO cells; experiment: Assay of IICR (IP3 induced calcium release)-inhibiting action; assay type: cell-based, Chinese hamster; details: Cricetulus griseus, CHO, CHO cells, 10 μM ATP, read-out: IICR level (percentage of inhibition); for inhibition at 10 µM: test compound 10 μmol; for inhibition at 30 µM: test compound 30 μmol; for inhibition at 100 µM: test compound 100 μmol
Outline: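 Inhibition (%) of the intracellular calcium increase triggered by 10 μM ATP, measured in CHO cells in BSS with calcium. Compound given 1 min after the buffer exchange and 2 min before ATP; values reported per compound concentration.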

[2] = tested on: SOCE (store operated calcium entry) in CHO cells; experiment: Assay of SOCE (store operated calcium entry)-inhibiting action; assay type: cell-based, Chinese hamster; details: Cricetulus griseus, CHO, CHO cells, thapsigargin, read-out: SOCE level (percentage of inhibition); for inhibition at 10 µM: test compound 10 μmol; for inhibition at 30 µM: test compound 30 μmol; for inhibition at 100 µM: test compound 100 μmol
Outline: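 CHO cells in calcium-free BSS received compound, then 1 μM thapsigargin 2 min later to deplete stores; after 9 min, 2 mM calcium chloride (final) added. Percent inhibition of the rise in intracellular calcium determined at various compound concentrations.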

| Compound | inhibition at 10 µM [1] | inhibition at 30 µM [1] | inhibition at 100 µM [1] | inhibition at 10 µM [2] | inhibition at 30 µM [2] | inhibition at 100 µM [2] |
| --- | --- | --- | --- | --- | --- | --- |
| Cc1ccc(C(=O)CCN(C)CCO)o1 [Example 140, 2-(N-methylhydroxyethyl)aminoethyl-5-methyl-2-furylketone] | 20% | 20% | 30% | 0% | 0% | 0% |
| CCC(CO)(CO)NCCC(=O)c1cccc2ccccc12 [Example 141] | 20% | 20% | 20% | 0% | 0% | 0% |
| CCN(CCC(=O)c1ccco1)Cc1ccccc1 [Example 142, 2-(N-benzylethyl)aminoethyl-2-furylketone] | 40% | 50% | 80% | 0% | 0% | 0% |
| O=C(CCN(CCO)CCO)c1nccs1 [Example 143, 2-(N,N-dihydroxyethyl)aminoethyl-2-thiazolylketone] | 0% | 50% | 90% | 0% | 0% | 10% |
| CCN(CCC(=O)c1cccnc1)Cc1ccccc1 [Example 144, 2-(N-benzylethyl)aminoethyl-3-pyridylketone] | 30% | 40% | 50% | 0% | 0% | 0% |
| Cc1ccc(C(=O)CCN(CCO)CCO)o1 [Example 145, 2-(N-bishydroxyethyl)aminoethyl-5-methyl-2-furylketone] | 50% | 30% | 30% | 0% | 10% | 20% |
| Cc1ccc(C(=O)CCN(CCO)C(C)C)o1 [Example 146, 2-(N-isopropylhydroxyethyl)aminoethyl-5-methyl-2-furylketone] | 50% | 30% | 90% | 0% | 0% | 0% |
| O=C(CCN(CCO)CCO)c1ccc2ccccc2c1 [Example 147, 2-(N-bishydroxyethyl)aminoethyl-2-naphthylketone] | 20% | 60% | 90% | 0% | 0% | 0% |
| COc1ccc(C(=O)CCN(CCO)CCO)cc1 [Example 148, 2-(N-bishydroxyethyl)aminoethyl-4-methoxyphenylketone] | 20% | 30% | 90% | 0% | 0% | 0% |
| O=C(CCN(CCO)CCO)c1cccs1 [Example 149, 2-(N-dihydroxyethyl)aminoethylthiophenylketone] | 20% | 20% | 80% | 0% | 0% | 0% |
| O=C(CCN(CCO)CCO)c1cccnc1 [Example 150, 2-(N-bishydroxyethyl)aminoethyl-3-pyridylketone] | 30% | 20% | 50% | 0% | 0% | 10% |
| CC(C)N(CCO)CCC(=O)c1cnccn1 [Example 151, 2-(N-isopropylhydroxyethyl)aminoethyl-2-pyrazylketone] | 20% | 20% | 50% | 0% | 0% | 0% |
